Experimental data published in patent US20230028658A1, “EXPANDED DOSAGE REGIMENS FOR INTEGRIN INHIBITORS” (Pliant Therapeutics, Inc., priority 2021, published 2023).

Tests used:
[1] = test system: Type I Collagen gene Col1a1 expression; test: Precision cut lung slices of mice under acute bleomycin exposure, Col1a1 expression; assay type: cell-based, Mice (C57BL/6); conditions: acute bleomycin PCLS, 3 days culture, normalized to DMSO; FIG. 5A
Description: Mice (C57BL/6) were administered 3 U/kg of bleomycin (Teva Pharmaceuticals; North Wales, Pa.) on day 0 via oropharyngeal aspiration while under anesthesia. On day 14, precision cut lung slices were obtained. Following euthanization, 2% low gelling temp agarose was injected into the mouse lungs via the trachea. […] The lobes were then subjected to precision slicing to obtain samples for culture using a microtome (Compresstome VF-300-0Z, Precisionary; Greenville, N.C.). Individual slices were distributed in a multiwell culture plate and cultured for 3 days under control (DMSO) and test compound conditions.

lung Col1a1 expression [2] = test: Precision cut lung slices from human IPF explants, 3 days, Col1a1 expression; assay type: cell-based; conditions: human IPF PCLS, 3G9 ≥400 ng/mL, compound 5 179 nM, ALK5 inhibitor 1 μM, FIG. 6C
Text: Explanted lung tissue was obtained from human IPF subjects and inflated with agarose as described in the preceding examples. Biopsy cores were obtained from the agarose-inflated lung tissue. The biopsy cores were subjected to precision slicing to obtain several hundred μm thick. Individual slices were distributed in a multiwell culture plate and cultured for […] under control (DMSO) and test compound conditions. The viability of the slices over the course of culturing was confirmed by WST-1 assay of mitochondrial activity.

αvβ6 = αvβ6 (Homo sapiens, UniProt P06756+P18564); test: IC50 of αvβ6 adjusted for protein binding
Chain of αvβ6 (P06756 31-1048): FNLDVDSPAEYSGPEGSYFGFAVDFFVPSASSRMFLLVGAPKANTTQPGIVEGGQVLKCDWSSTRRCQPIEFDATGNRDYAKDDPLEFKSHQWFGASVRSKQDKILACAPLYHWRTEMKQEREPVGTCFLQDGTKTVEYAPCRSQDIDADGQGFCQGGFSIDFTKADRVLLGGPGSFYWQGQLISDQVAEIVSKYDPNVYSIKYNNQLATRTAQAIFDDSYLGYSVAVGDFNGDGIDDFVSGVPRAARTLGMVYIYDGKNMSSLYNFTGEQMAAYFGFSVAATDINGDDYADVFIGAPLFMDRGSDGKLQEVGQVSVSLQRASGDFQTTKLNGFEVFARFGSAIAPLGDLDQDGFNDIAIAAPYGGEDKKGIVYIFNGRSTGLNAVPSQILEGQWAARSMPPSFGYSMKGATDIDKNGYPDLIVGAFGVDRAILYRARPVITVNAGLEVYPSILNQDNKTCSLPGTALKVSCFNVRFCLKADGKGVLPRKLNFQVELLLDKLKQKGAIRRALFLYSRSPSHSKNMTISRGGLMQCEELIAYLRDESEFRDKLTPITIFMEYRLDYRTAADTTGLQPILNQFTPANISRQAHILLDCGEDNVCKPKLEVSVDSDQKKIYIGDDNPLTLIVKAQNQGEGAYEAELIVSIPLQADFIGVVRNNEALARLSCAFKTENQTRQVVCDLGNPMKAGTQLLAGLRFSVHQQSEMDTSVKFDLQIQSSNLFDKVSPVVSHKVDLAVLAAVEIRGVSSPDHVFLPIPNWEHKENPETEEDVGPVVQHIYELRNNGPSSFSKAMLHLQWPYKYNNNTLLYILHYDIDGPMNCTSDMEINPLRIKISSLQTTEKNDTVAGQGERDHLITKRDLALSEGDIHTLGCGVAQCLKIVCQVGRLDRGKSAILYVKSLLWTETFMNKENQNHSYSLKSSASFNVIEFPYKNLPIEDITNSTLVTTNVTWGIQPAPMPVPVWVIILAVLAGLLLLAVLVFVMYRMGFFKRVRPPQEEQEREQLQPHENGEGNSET
Chain of αvβ6 (P18564 22-788): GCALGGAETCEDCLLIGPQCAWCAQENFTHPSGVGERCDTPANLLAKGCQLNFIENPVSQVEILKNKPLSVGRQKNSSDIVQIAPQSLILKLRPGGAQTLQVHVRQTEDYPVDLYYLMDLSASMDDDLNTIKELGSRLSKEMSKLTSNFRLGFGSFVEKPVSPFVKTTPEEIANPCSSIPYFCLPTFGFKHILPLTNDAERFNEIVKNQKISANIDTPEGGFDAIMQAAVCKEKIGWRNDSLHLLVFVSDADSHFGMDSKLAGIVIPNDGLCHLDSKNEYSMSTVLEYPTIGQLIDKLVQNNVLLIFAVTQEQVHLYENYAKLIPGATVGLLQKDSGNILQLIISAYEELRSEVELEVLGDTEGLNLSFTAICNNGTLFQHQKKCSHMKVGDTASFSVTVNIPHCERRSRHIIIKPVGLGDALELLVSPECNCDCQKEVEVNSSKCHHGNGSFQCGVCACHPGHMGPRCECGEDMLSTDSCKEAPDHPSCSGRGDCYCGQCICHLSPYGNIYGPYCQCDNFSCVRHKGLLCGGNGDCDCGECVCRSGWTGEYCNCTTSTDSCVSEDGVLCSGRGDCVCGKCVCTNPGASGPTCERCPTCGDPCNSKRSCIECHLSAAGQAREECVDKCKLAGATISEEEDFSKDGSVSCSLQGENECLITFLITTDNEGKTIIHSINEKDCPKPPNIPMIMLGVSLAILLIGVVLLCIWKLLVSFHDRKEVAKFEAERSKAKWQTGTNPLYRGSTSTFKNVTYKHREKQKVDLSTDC

bleomycin-treated mice = test: Murine bleomycin model; assay type: in vivo, Mice (C57BL/6)
Text: It has been previously shown that inhibition of αvβ6 in the lung can be detected though measurement of phospho-SMAD (pSMAD) in alveolar macrophages. Alveolar macrophages are known to operate in a unique niche in the lung, distinct from interstitial macrophages. SMAD3 is a downstream target of the active TGF-β cytokine binding its receptor and in alveolar macrophages it is phosphorylated by homoeostatic levels of TGF-β. Accordingly, it was desirable to know whether inhibition of TGF-β activation using the disclosed compounds would result in reduced SMAD2 and SMAD3 phosphorylation.
Mice (C57BL/6) were divided into healthy (n=15), vehicle-treated (n=15), and test article-treated (n=15 per dose) groups. Mice in the vehicle and test article-treated groups were administered 3 U/kg of bleomycin (Teva Pharmaceuticals; North Wales, Pa.) via oropharyngeal aspiration while under anesthesia on day 0. Healthy animals were administered water in a similar fashion. Starting on day 7, mice in the control group were administered PBS vehicle, 130 μL, by oral gavage, BID for 14 days. Also starting on day 7, mice in the test group were administered compound 5 in PBS by oral gavage, BID for 14 days, at relative dosages of 1×, 2.5× and 5×. […] From day 14 through day 21, 9 of the 15 mice were administered ^2H2O for labeling. All mice were sacrificed on day 21 and tissues were collected. Samples were prepared for analysis either directly from lung tissue, or by bronchoalveolar lavage, which washes out the bronchiolar and alveolar space with saline to produce a bronchoalveolar lavage fluid (BALF) in which 80-90% of cells are alveolar macrophages.

[3] = test system: IPF-derived lung fibroblasts; test: cell adhesion in IPF-derived lung fibroblasts (FIG. 3B); assay type: cell-based
COL1A1 = COL1A1 expression in precision cut lung slices (PCLS) from human IPF lung tissue (FIG. 6E); assay type: cell-based; conditions: concentrations ranging from 200 pM to 1 μM, versus 0.1% DMSO control
Description: FIG. 6D is a bar graph showing relative expression of COL1A1 in precision cut lung slices (PCLS) from idiopathic pulmonary fibrosis (IPF) lung tissue upon exposure to Compound 5, clinical standard of care compounds nintedanib (Nin) and pirfenidone (Pirf), and an ALK5 inhibitor, all versus DMSO control.
COL1A1 expression is also graphed for the PCLS in the presence of 0.1% DMSO control, and an Alk5 inhibitor at 1 μM.

lung Col1a1 expression [4] = test: Precision cut lung slices of mice under chronic bleomycin exposure, Col1a1 expression (Example B9); assay type: cell-based, Mice (C57BL/6); conditions: chronic bleomycin PCLS, 7 days culture, normalized to DMSO; FIG. 5B
Description: (§1) Mice (C57BL/6) were administered 3 U/kg of bleomycin (Teva Pharmaceuticals; North Wales, Pa.) on Day 0 and 1 U/kg of bleomycin on days 14, 28, 42 and 56 via oropharyngeal aspiration while under anesthesia. At day 70, 14 days after the final bleomycin insult, precision cut lung slices were obtained. Following euthanization, 2% low gelling temp agarose was injected into the mouse lungs via the trachea. […] The lobes were then subjected to precision slicing to obtain samples for culture using a microtome (Compresstome VF-300-0Z, Precisionary; Greenville, N.C.). Individual slices were distributed in a multiwell culture plate and cultured for 7 days under control (DMSO) and test compound conditions. The viability of the slices over the course of culturing was confirmed by WST-1 assay of mitochondrial activity.
During the culture period, slices in the control group were treated with DMSO and slices in the test group were treated with a DMSO solution of one of: the selective antibody αvβ6 inhibitor 3G9; the αvβ1-selective small molecule inhibitor; a combination of the selective antibody αvβ6 inhibitor 3G9 and the αvβ1-selective small molecule inhibitor; compound 5; and the small molecule ALK5 inhibitor. The selective αvβ1 and αvβ6 integrin inhibitors were analyzed at ≥their respective IC90 concentrations for inhibition of TGF-beta activation. […]

lung Col1a1 expression [5] = test: Precision cut lung slices, chronic bleomycin, comparison with nintedanib and pirfenidone (Example B10); assay type: cell-based, Mice (C57BL/6); conditions: chronic bleomycin PCLS, 7 days culture, vs DMSO vehicle; FIG. 6A
Description: as §1, with “following” for “after”
During the culture period, slices in the control group were treated with DMSO and slices in the test group were treated with a DMSO solution of one of: compound 5; nintedanib; pirfenidone; a combination of nintedanib and compound 5; a combination of pirfenidone and compound 5; or the small molecule ALK5 inhibitor. Compound 5 was […] effective to equal or exceed its respective IC50 values at αvβ6 and αvβ1. […] Nintendanib and pirfenidone were analyzed at concentrations 10× their reported therapeutic concentrations.

Compound: COCCN(CCCCc1ccc2c(n1)NCCC2)CC[C@H](Nc1ncnc2ccccc12)C(=O)O [Compound 5, (S)-4-((2-methoxyethyl) (4-(5,6,7,8-tetrahydro-1,8-naphthyridin-2-yl)butyl)amino)-2-(quinazolin-4-ylamino) butanoic acid]
- Type I Collagen gene Col1a1 expression [1]: decreased Type I Collagen gene Col1a1 expression substantially
- lung Col1a1 expression (lung Col1a1 expression [2]): substantial, statistically significant (p<0.01 vs vehicle) decrease
- IC50 (αvβ6): 10 nM
- pSMAD3 levels in lung and BALF cells vs. plasma drug exposure (bleomycin-treated mice; 14 days after bleomycin, […] dose PO BID 1.5 days, FIGS. 4J, 4K): close inverse relationship
- accumulated new collagen (percentage of lung collagen containing 2H-labeled hydroxyproline) (bleomycin-treated mice; bleomycin mice, 1× and 5× (p<0.01 vs vehicle), FIG. 4D): dose-dependent reduction
- total pulmonary collagen, as measured by μg of hydroxyproline (bleomycin-treated mice; bleomycin mice, 1×, […], 5× (p<0.05 vs vehicle), FIG. 4E): reduction in total pulmonary collagen
- percent total collagen area in second harmonic generation lung images (bleomycin-treated mice; bleomycin mice, 1×, […], 5×, FIG. 4I): substantial, statistically significant dose-dependent reduction
- pSMAD3 levels in the lung (SMAD3 phosphorylation) (bleomycin-treated mice; bleomycin mice, oral gavage BID 14 days, 1×, […], 5×, FIG. 4C): approximately 50 % of the untreated levels
- cell adhesion in the IPF-derived lung fibroblasts [3]: substantially inhibited
- COL1A1 expression in PCLS from human IPF lung tissue (COL1A1): dose dependent reduction
- lung Col1a1 expression (lung Col1a1 expression [4]): decreased lung Col1a1 expression substantially
- lung slice Col1a1 expression (lung Col1a1 expression [5]): substantial, statistically significant (p<0.01 vs vehicle) decrease
